A short description of data set [1]: Evaluation of compound distribution in rat liver. The data set is classed as in vivo. To be noted: male SD rats, single oral 3 mg/kg, 0.25 h after administration. The method, then: An acclimation period of 2-3 days was given before the experiments. The rats were fasted for 8-12 h before administration, supplied with water 2 h after administration and foods 4 h after administration.
6 mg of the test compound (based on free base) was weighed and added to 20 mL of ethanol-PEG400-saline (10:30:60). The mixture was vortexed for 2 min, and sonicated for 3 min, and then used to prepare a solution of test sample solution with a concentration of 0.3 mg/mL for oral administration. 100 μL of the test sample solution was volumed to 10 ng/mL with methanol, and a control sample of the same concentration was prepared. The concentrations of the test sample and control sample were detected by HPLC, and the accuracy was calculated.
SD rats were given a single oral administration of 3 mg/kg of test compound at a dose of 10 mL/kg. The rats were bled in femoral artery and ruptured in neck 0.25 h after administration. The liver and blood samples (anticoagulation with heparin sodium) were collected immediately, and placed on ice.
The homogenate was centrifuged (centrifugation conditions: 8000 rpm/min, 5 min, 4° C.). The supernatant was transferred and subjected to cryopreservation. The supernatant was thawed and centrifuged before injection, and the supernatant was collected and subjected to LC-MS/MS for analyzing the content of the compound in the supernatant sample.
The collected whole blood sample was placed on ice and centrifuged within 30 min (centrifugation conditions: 8000 rpm/min, 5 min, 4° C.). 100 μL of the upper layer of plasma was transferred, and precipitated with 300 μL of methanol. The mixture was shaken and centrifuged, and diluted with mobile phase. The supernatant was collected and subjected to LC-MS/MS for analyzing the content of the compound in the supernatant sample.

The next data set concerns the target ACC1 (Homo sapiens (Human), UniProt Q13085). The data set is described as follows: ACC1 enzyme activity assay (ADP-Glo). The data set is classed as biochemical. To be noted: ACC1 enzyme 2 nM working solution, room temperature.
The next data set addresses ACC2 (Homo sapiens (Human), UniProt O00763). The data set is described as follows: ACC2 enzyme activity assay (ADP-Glo). Type of data set: biochemical. To be noted: ACC2 enzyme 1.1 nM working solution, room temperature. (ADP-Glo turns the ADP formed in a reaction into a luminescent signal.)

Where two headings read alike, the source gives them in different places.

ACC2, sequence (O00763 whole entry): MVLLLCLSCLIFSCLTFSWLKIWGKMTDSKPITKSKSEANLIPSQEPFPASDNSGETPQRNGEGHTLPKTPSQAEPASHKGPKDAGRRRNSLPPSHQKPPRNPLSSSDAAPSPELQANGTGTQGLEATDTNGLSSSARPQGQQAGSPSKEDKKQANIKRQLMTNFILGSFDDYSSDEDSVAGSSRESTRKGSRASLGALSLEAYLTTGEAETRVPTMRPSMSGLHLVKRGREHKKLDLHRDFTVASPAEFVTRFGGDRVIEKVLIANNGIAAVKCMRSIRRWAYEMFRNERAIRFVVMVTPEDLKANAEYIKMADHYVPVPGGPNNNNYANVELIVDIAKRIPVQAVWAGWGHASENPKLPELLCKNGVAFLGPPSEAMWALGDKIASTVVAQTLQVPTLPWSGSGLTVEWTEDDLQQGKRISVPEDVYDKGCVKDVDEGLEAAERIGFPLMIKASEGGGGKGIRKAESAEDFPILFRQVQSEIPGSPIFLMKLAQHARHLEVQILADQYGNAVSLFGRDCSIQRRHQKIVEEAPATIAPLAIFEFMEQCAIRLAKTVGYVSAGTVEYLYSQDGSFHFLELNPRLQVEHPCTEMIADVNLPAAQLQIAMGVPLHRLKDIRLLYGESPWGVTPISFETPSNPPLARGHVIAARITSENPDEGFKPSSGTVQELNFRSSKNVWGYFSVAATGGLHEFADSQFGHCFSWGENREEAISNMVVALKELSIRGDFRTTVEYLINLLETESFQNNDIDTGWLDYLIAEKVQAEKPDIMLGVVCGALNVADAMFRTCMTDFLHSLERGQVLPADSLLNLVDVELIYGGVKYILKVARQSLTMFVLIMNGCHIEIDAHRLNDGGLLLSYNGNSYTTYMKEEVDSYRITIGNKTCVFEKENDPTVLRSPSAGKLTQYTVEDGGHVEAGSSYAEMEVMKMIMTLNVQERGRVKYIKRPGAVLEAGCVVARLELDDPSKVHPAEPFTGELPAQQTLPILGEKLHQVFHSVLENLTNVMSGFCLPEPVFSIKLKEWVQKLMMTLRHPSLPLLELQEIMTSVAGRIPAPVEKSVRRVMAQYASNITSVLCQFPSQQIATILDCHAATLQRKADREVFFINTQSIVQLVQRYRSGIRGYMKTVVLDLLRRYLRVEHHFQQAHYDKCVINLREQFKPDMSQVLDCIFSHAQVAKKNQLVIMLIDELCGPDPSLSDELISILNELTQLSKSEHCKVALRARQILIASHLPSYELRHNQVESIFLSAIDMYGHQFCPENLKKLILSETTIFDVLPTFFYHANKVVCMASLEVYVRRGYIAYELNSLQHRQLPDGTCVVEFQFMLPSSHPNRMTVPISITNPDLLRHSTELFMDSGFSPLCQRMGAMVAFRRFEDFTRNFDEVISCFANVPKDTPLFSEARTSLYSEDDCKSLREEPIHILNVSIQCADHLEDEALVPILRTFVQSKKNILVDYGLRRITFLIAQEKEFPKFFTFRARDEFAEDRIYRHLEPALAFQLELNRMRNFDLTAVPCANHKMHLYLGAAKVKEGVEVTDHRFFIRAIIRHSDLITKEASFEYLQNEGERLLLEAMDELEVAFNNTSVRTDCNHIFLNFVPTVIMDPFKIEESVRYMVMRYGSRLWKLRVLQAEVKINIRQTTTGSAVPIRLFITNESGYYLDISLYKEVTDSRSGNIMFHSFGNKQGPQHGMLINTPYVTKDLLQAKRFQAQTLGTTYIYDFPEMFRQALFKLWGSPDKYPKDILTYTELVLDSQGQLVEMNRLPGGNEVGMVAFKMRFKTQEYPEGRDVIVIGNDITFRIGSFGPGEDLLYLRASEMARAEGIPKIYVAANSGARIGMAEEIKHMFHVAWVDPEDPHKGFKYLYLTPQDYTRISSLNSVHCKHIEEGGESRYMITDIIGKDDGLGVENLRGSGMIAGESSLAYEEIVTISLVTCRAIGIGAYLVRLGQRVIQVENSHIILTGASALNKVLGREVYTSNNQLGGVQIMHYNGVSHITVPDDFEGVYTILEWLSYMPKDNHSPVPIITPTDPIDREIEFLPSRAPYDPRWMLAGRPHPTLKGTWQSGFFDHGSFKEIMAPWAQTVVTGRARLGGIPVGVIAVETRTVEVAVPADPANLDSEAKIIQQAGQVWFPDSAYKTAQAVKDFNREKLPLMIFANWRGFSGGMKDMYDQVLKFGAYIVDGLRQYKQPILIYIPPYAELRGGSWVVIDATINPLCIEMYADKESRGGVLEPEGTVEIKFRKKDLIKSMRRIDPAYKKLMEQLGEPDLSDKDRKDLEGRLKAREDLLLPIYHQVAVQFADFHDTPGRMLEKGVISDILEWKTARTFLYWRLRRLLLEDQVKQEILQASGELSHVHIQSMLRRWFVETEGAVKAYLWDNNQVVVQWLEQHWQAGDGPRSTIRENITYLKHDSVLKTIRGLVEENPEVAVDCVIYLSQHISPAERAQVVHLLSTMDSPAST

Regarding `COc1ccccc1[C@H](Cn1c(=O)n(C(C)(C)C(=O)O)c(=O)c2c(C)c(-c3ncco3)sc21)OC1CCOCC1` [ND-630, 2-[1-[2-(2-methoxyphenyl)-2-(oxecyclo-4-yloxy)ethyl]-5-methyl-6-(1,3-oxazol-2-yl)-2,4-dioxo-1H,2H,3H,4H-thieno[2,3-d]pyrimidin-3-yl]-2-methylpropanoic acid, reference compound], the concentration at 0.25 h stood at 6070 ng/g in data set [1] (liver, read-out: Concentration in Liver) and 145 ng/mL in data set [1] (plasma, read-out: Concentration in Plasma). Moreover, in data set [1] (liver/plasma, read-out: Liver/plasma distribution ratio), the Kp at 0.25 h stood at 41.8. For the same compound, the figures for the IC50 against ACC1 and on ACC2 were 0.5 nM and 3.56 nM, respectively.

By IC50 is commonly meant the point on the concentration scale where inhibition reaches its midpoint. A high value points to weaker potency.

(Values after patent publication US11186587B2, “Compound as ACC inhibitor and use thereof” (NANJING SANHOME PHARMACEUTICAL CO., LTD., priority 2017, dated 2021).)
